Data taken from US11413286B2, “Producing astrocytes using small molecules” (CITY OF HOPE, priority 2016, dated 2022).

How the values were obtained:
Oct4-luc = Oct4-luc reporter induction by OAC compounds; type: cell-based; set-up: key to Oct4-luc Activity: Active: Compounds that induce Oct4-luc 1.8-fold or more were classified as being “active”; Inactive: molecules that induce Oct4-luc less than 1.8-fold were indicated as being “inactive”
reprogramming efficiency = assay: Enhancement of reprogramming efficiency by OAC compounds; type: cell-based
MEFs = assay: Direct reprogramming of MEFs into astrocytes, GFAP/S100β immunostaining; type: cell-based, mouse; conditions: MEFs treated for 25 days, GFAP immunostaining
Description: Cell culture. MEFs and TTFs were derived from E13.5 embryos of Oct4-GFP transgenic (OG2) mice (Szabo et al., 2002), wild type or GFAP-GFP transgenic mice (Jackson Laboratory) (Zhuo et al., 1997). These cells were cultured in MEF medium containing DMEM, 10% FBS, 0.1 mM nonessential amino acids, and 2 mM L-glutamine. Mouse primary astrocytes were isolated from P1-2 pups following published protocol ([…] et al., 2013) and cultured in DMEM containing 10% FBS. Direct reprogramming mouse fibroblasts into astrocytes. MEFs were plated on 6-well or 12-well plates at a cell density of 3×10^3 cells/cm^2. Cells were cultured in MEF medium for 24 hr, then changed to mouse induced astrocyte medium (iAM) containing knock-out DMEM with 10% knock-out serum replacer, 10% FBS, 2 mM L-glutamine, 0.1 mM NEAA, 0.1 mM β-mercaptoethanol, and 100 ng/ml FGF. Cells were treated with compounds, including […] valproaic acid (VPA) (Stemgent), 3 μM CHIR99021(D&C chemicals), 10 μM SB-431542 (D&C chemicals), 10 μM Tranylcypromine (Stemgent), and 1 μM OAC1(Li et al., 2012) for 10 days, replated onto Matrigel-coated plates (BD Biosciences) and continued with compound treatment for another 15 days. Cells were then switched to mouse astrocyte medium (AM) containing DMEM with 10% heat-inactivated FBS. Immunocytochemistry. […]

[1] = tested on: induced astrocytes (iA) transfected with R239C AxD mutant GFAP-GFP; assay: GFAP protein aggregates in induced astrocytes transfected with AxD mutant GFAP-GFP; type: cell-based, mouse; conditions: 100 μM ceftriaxone for 48 hr vs vehicle
Description: Transfection into induced astrocytes. Induced astrocytes (iA) were seeded at 1×10^5 cells per well in 12-well plates and incubated overnight. Then 2 μg plasmid of human wild type (WT) GFAP-GFP or AxD mutant GFAP-GFP with the R239C mutation (Bachetti et al., 2008) was transfected into iA using Lipofectamine® 2000 (Invitrogen). Forty eight hr after transfection, cells were assayed by immunostaining. For drug treatment, 24 hr after transfection, cells were treated with vehicle control or 100 μM ceftriaxone for 48 hr, followed by immunostaining.
AxD is a neurological disease with astrocyte dysfunction and is caused by genetic mutation of the GFAP gene (Messing et al., 2012). Expression of AxD mutant GFAP induces the expression of αB-crystallin, a small heat shock protein, and the formation of protein aggregates containing GFAP and αB-crystallin in astrocytes (Messing et al., 2012). The compound-induced astrocytes were tested to see if they could be used to model AxD. Plasmid expressing GFP fusion of the wild type (WT) or AxD mutant GFAP containing the R239C mutation, a hotspot mutation for AxD (Hagemann et al., 2006), were transfected into VCSTO-induced astrocytes. […] VCSTO-induced astrocytes transfected with the AxD mutant GFAP were treated with ceftriaxone.

[2] = tested on: MEF transduced with AxD GFAP-GFP; assay: GFAP protein aggregates in MEF transduced with AxD mutant GFAP-GFP; type: cell-based, mouse; conditions: ceftriaxone vs vehicle
Description: FIGS. 12A-12E illustrate recapitulating GFAP protein aggregates in VCSTO-induced astrocytes (iA) transfected with an AxD mutant GFAP. […] The transfected cells are indicated by GFP. Nuclei Dapi staining (blue) is included in the merged images. Scale bar, 10 μm. […] Scale bar, 10 μm. […] The percentage of iA that contained the GFAP-GFP aggregates was reduced upon ceftriaxone treatment. n=400 to 500 cells. […] MEF transduced with the AxD GFAP-GFP were treated with ceftriaxone (+Cef) or vehicle control (−Cef). The percentage of MEF that contain the GFAP-GFP aggregates remained the same in the absence or presence of ceftriaxone treatment. n=600 to 900 cells. […] Error bars are sd of the mean, **p<0.01 by Student's t-test.
AxD is a neurological disease with astrocyte dysfunction and is caused by genetic mutation of the GFAP gene (Messing et al., 2012). Expression of AxD mutant GFAP induces the expression of αB-crystallin, a small heat shock protein, and the formation of protein aggregates containing GFAP and αB-crystallin in astrocytes (Messing et al., 2012). The compound-induced astrocytes were tested to see if they could be used to model AxD. Plasmid expressing GFP fusion of the wild type (WT) or AxD mutant GFAP containing the R239C mutation, a hotspot mutation for AxD (Hagemann et al., 2006), were transfected into VCSTO-induced astrocytes. […]

Row | Structure (SMILES) | Oct4-luc Activity (Oct4-luc) | Oct4-luc fold Induction (Oct4-luc) [fold] | also measured
1 | O=C(Nc1ccc2[nH]ncc2c1)c1cccc(C(F)(F)F)c1 [Compound C21] | Inactive | 1.48 | –
2 | O=C(Nc1ccc2[nH]ncc2c1)c1ccc(F)cc1 [Compound C7] | Active | 2.2 | –
3 | O=C(Nc1ccc2[nH]ncc2c1)c1ccc(Cl)cc1Cl [Compound C12] | Active | 3.6 | –
4 | O=C(Nc1ccc2[nH]ccc2c1)c1ccccc1 [Compound C2] | Active | 4.15 | Enhance reprogramming efficiency (reprogramming efficiency): YES
5 | O=C(Nc1ccc2[nH]ncc2c1)c1cccc(F)c1 [Compound C18] | Inactive | 1.27 | –
6 | O=C(Nc1ccc2[nH]nnc2c1)c1cccc(Cl)c1 [Compound C31] | Inactive | 1 | –
7 | O=C(Nc1ccc2[nH]ncc2c1)c1ccccc1Cl [Compound C23] | Inactive | 1.72 | –
8 | Cc1nc2cc(NC(=O)c3ccc([N+](=O)[O-])cc3)ccc2[nH]1 [Compound C32] | Inactive | 1.3 | –
9 | CCOc1ccccc1C(=O)Nc1ccc2[nH]ncc2c1 [Compound C26] | Inactive | 1.22 | –
10 | COc1ccc(C(=O)Nc2ccc3[nH]ncc3c2)cc1OC [Compound C29] | Inactive | 1.13 | –
11 | O=C(Nc1ccc2[nH]ncc2c1)c1cccc(Br)c1 [Compound C20] | Inactive | 1.48 | –
12 | NC(=O)c1ccc(-c2nc(-c3ccc4c(c3)OCO4)c(-c3ccccn3)[nH]2)cc1 [S, 4-[4-(1,3-benzodioxol-5-yl)-5-pyridin-2-yl-1H-imidazol-2-yl]benzamide] | – | – | induction of GFAP-positive cells from MEFs (MEFs): sufficient to induce GFAP-positive cells
13 | COc1cccc(C(=O)Nc2ccc3[nH]ncc3c2)c1OC [Compound C27] | Inactive | 1.37 | –
14 | Cc1ccc(C(=O)Nc2ccc3[nH]ncc3c2)cc1C [Compound C13] | Active | 2.78 | –
15 | O=C(Nc1ccc2[nH]ncc2c1)c1ccccc1Br [Compound C24] | Inactive | 1.46 | –
16 | CO/N=C(\C(=O)N[C@@H]1C(=O)N2C(C(=O)O)=C(CSc3nc(=O)c(=O)[nH]n3C)CS[C@H]12)c1csc(N)n1 [ceftriaxone] | – | – | GFAP protein aggregates in iA with AxD mutant GFAP [1]: Substantial elimination of GFAP protein aggregates; GFAP protein aggregates in MEF with AxD mutant GFAP [2]: not responsive
17 | CCOc1cccc(C(=O)Nc2ccc3[nH]ncc3c2)c1 [Compound C14] | Active | 2.67 | –
18 | O=C(Nc1cc2cc[nH]c2cn1)c1ccccc1 [Compound C1] | Active | 4.72 | Enhance reprogramming efficiency (reprogramming efficiency): YES

Row | Structure (SMILES) | Oct4-luc Activity (Oct4-luc) | Oct4-luc fold Induction (Oct4-luc) [fold] | also measured
19 | O=C(Nc1ccc2[nH]ncc2c1)c1cccc(Cl)c1 [Compound C19] | Inactive | 1.65 | –
20 | O=C(Nc1ccc2[nH]ncc2c1)c1ccccc1 [Compound C8] | Active | 1.89 | –
21 | Cc1cccc(-c2n[nH]cc2-c2ccc3ncccc3n2)n1 [Compound 6, 2-[5-(6-methylpyridin-2-yl)-1H-pyrazol-4-yl]-1,5-naphthyridine] | – | – | induction of GFAP-positive cells from MEFs (MEFs): able to induce GFAP-positive cells
22 | CN1CCC(c2c[nH]c3ccc(NC(=O)c4ccc(F)cc4)cc23)CC1 [Compound C16] | Inactive | 1 | –
23 | CC(C)c1ccc(C(=O)Nc2ccc3[nH]ncc3c2)cc1 [Compound C11] | Active | 3.78 | –
24 | COc1cccc(C(=O)Nc2ccc3[nH]ncc3c2)c1 [Compound C15] | Active | 1.93 | –
25 | CCOc1ccc(C(=O)Nc2ccc3[nH]ncc3c2)cc1 [Compound C9] | Active | 7.22 | –
26 | O=C(Nc1ccc2[nH]ccc2c1)c1ccc(F)cc1 [Compound C3] | Active | 3.84 | Enhance reprogramming efficiency (reprogramming efficiency): YES
27 | O=C(Nc1ccc2[nH]ncc2c1)c1ccccc1F [Compound C22] | Inactive | 1.5 | –
28 | Cc1ccc(C(=O)Nc2ccc3[nH]cc(C#N)c3c2)cc1 [Compound C17] | Inactive | 1.1 | –
29 | COc1ccc(C(=O)Nc2ccc3[nH]ncc3c2)cc1 [Compound C6] | Active | 3.18 | –
30 | CCOc1ccc(C(=O)Nc2ccc3[nH]ncc3c2)cc1OCC [Compound C30] | Inactive | 1 | –
31 | CCc1ccc(C(=O)Nc2ccc3[nH]ncc3c2)cc1 [Compound C10] | Active | 4.51 | –
32 | COc1ccccc1C(=O)Nc1ccc2[nH]ncc2c1 [Compound C25] | Inactive | 1.5 | –
33 | COc1ccc(C(=O)Nc2ccc3[nH]ncc3c2)c(OC)c1 [Compound C28] | Inactive | 1.42 | –
34 | COc1ccc(C(=O)Nc2ccc3[nH]ccc3c2)cc1 [Compound C4] | Active | 5.46 | –
35 | O=C(Nc1ccc2[nH]ccc2c1)c1ccc2nonc2c1 [Compound C5] | Active | 2.87 | –
